Like-named read-outs stand apart in the source and are kept apart here.

Common to all, as to assay: Post-emergence efficacy, Method A
Common to all, as to format: in vivo

In one test the test system is Lolium perenne (LOLPE). The settings on record: evaluated after 13 days; for pest or weed control at 500 g/ha: Lolium perenne, post-emergence, 312 h. Put shortly: (§1)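 Sow in standard soil; grow 14 d under glasshouse control (24/16 °C, 14 h light, 65% humidity). Spray post-emergence with compound formulated in acetone/IF50, diluted in Empicol ESC70 (0.25% or 1%) + 1% ammonium sulphate. Return to glasshouse, water twice daily, score at 13 d on a 0–100 damage scale.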

The test system of test [1] is Echinochloa crus-galli (ECHCG). The settings on record: evaluated after 13 days; for pest or weed control at 500 g/ha: Echinochloa crus-galli, post-emergence, 312 h. In outline:
as §1

Another test relates to Eleusine indica (ELEIN). Particulars: evaluated after 13 days; for pest or weed control at 500 g/ha: Eleusine indica, post-emergence, 312 h. Put shortly:
as §1

The test system of test [2] is Ipomoea hederacea (IPOHE). The settings on record: evaluated after 13 days; for pest or weed control at 500 g/ha: Ipomoea hederacea, post-emergence, 312 h. Put shortly: as §1
Test [3] relates to Amaranthus palmeri (AMAPA). Particulars: evaluated after 13 days; for pest or weed control at 500 g/ha: Amaranthus palmeri, post-emergence, 312 h. In outline: as §1
The subject of test [4] is Digitaria sanguinalis (DIGSA). The settings on record: evaluated after 13 days; for pest or weed control at 500 g/ha: Digitaria sanguinalis, post-emergence, 312 h. Put shortly:
as §1

Another test deals with Setaria faberi (SETFA). The settings on record: evaluated after 13 days; for pest or weed control at 500 g/ha: Setaria faberi, post-emergence, 312 h. Put shortly: as §1
Test [5] relates to Chenopodium album (CHEAL). The settings on record: evaluated after 13 days; for pest or weed control at 500 g/ha: Chenopodium album, post-emergence, 312 h. Put shortly:
as §1

The test system of test [6] is Euphorbia heterophylla (EPHHL). The settings on record: evaluated after 13 days; for pest or weed control at 500 g/ha: Euphorbia heterophylla, post-emergence, 312 h. Put shortly: as §1
[7] abbreviates: Application rate 500 g/Ha, 100=total damage to plant, 0=no damage to plant, read-out: Control of weed species after post-emergence application, LOLPE.
Where [8] appears, read: Application rate 500 g/Ha, 100=total damage to plant, 0=no damage to plant, read-out: Control of weed species after post-emergence application, ECHCG.
Where [9] appears, read: Application rate 500 g/Ha, 100=total damage to plant, 0=no damage to plant, read-out: Control of weed species after post-emergence application, ELEIN.
The mark [10] stands for this setting: Application rate 500 g/Ha, 100=total damage to plant, 0=no damage to plant, read-out: Control of weed species after post-emergence application, IPOHE.
Where [11] appears, read: Application rate 500 g/Ha, 100=total damage to plant, 0=no damage to plant, read-out: Control of weed species after post-emergence application, AMAPA.
The mark [12] stands for this setting: Application rate 500 g/Ha, 100=total damage to plant, 0=no damage to plant, read-out: Control of weed species after post-emergence application, DIGSA.
Where [13] appears, read: Application rate 500 g/Ha, 100=total damage to plant, 0=no damage to plant, read-out: Control of weed species after post-emergence application, SETFA.
The mark [14] stands for this setting: Application rate 500 g/Ha, 100=total damage to plant, 0=no damage to plant, read-out: Control of weed species after post-emergence application, CHEAL.
The mark [15] stands for this setting: Application rate 500 g/Ha, 100=total damage to plant, 0=no damage to plant, read-out: Control of weed species after post-emergence application, EPHHL.
Where [16] appears, read: Application rate 500 g/Ha, 100=total damage to plant, 0=no damage to plant.

For the compound `O=S(=O)([O-])CC[n+]1ccc(-c2ncccc2C(F)(F)F)cn1` [Compound A140], the pest or weed control at 500 g/ha in the test with Lolium perenne (LOLPE) (setting [7]) was 0%; in test [1] (setting [8]), 20%; in the test on Eleusine indica (ELEIN) (setting [9]), 10%; in test [2] (setting [10]), 20%; in [3] (setting [11]) it was 60%; in [4] (setting [12]), 10%. Further, the pest or weed control at 500 g/ha stood at 30% in the test with Setaria faberi (SETFA) (setting [13]), 50% in test [5] (setting [14]) and 50% in test [6] (setting [15]).
Turning to `O=S(=O)([O-])CC[n+]1ccc(-c2ncccc2Cl)cn1` [Compound A141], the pest or weed control at 500 g/ha came to 30% in the test on Lolium perenne (LOLPE) (setting [7]); 50% in test [1] (setting [8]); 60% with Eleusine indica (ELEIN) (setting [9]); 30% in test [2] (setting [10]); 100% in test [3] (setting [11]); 40% in test [4] (setting [12]). The figures for the pest or weed control at 500 g/ha (in the test on Setaria faberi (SETFA) (setting [13]); in test [5] (setting [14]); in [6] (setting [15])) were 50%, 60% and 20%, respectively.
As for `O=S(=O)([O-])CC[n+]1ccc(-c2ncc(Cl)cc2Cl)cn1` [Compound A142], the pest or weed control at 500 g/ha was determined as 10% in the test on Lolium perenne (LOLPE) (setting [7]); 40% in test [1] (setting [8]); 60% with Eleusine indica (ELEIN) (setting [9]); 20% in test [2] (setting [10]); 10% in test [3] (setting [11]); 40% in test [4] (setting [12]). Moreover, the figures for the pest or weed control at 500 g/ha (in the test with Setaria faberi (SETFA) (setting [13]); in test [5] (setting [14]); in test [6] (setting [15])) were 30%, 20% and 60%, respectively.
For `O=C(O)CC[n+]1ccc(-c2ncc(F)cc2F)cn1` [Compound A144], the pest or weed control at 500 g/ha came out at 10% in the test with Lolium perenne (LOLPE) (setting [7]); 20% in test [1] (setting [8]); 20% in the test on Eleusine indica (ELEIN) (setting [9]); 10% in [2] (setting [10]); 20% in test [3] (setting [11]); 30% in test [4] (setting [12]). For the same compound, the pest or weed control at 500 g/ha is 20% in the test with Setaria faberi (SETFA) (setting [13]), 10% in test [5] (setting [14]) and 20% in [6] (setting [15]).
With `Cc1n[n+](CCC(=O)O)ccc1-c1ccccn1` [Compound A145], the pest or weed control at 500 g/ha in the test on Lolium perenne (LOLPE) (setting [7]) was 0%; in [1] (setting [8]), 0%; with Eleusine indica (ELEIN) (setting [9]), 0%; in test [2] (setting [10]), 10%; in test [3] (setting [11]), 10%; in [4] (setting [12]), 10%. Moreover, the pest or weed control at 500 g/ha was 0% with Setaria faberi (SETFA) (setting [13]), 10% in test [5] (setting [14]) and 10% in test [6] (setting [15]).
Turning to `O=C(O)c1ccnc(-c2cc[n+](CCCS(=O)(=O)[O-])nc2)n1` [Compound A146], the “Control of weed species after post-emergence application, LOLPE” value in the test on Lolium perenne (LOLPE) (setting [16]) came out at 50. Moreover, the “Control of weed species after post-emergence application, ECHCG” value in [1] (setting [16]) stood at 90. The “Control of weed species after post-emergence application, ELEIN” value with Eleusine indica (ELEIN) (setting [16]) was 80. Moreover, the “Control of weed species after post-emergence application, IPOHE” value in test [2] (setting [16]) is 30. Further, the “Control of weed species after post-emergence application, AMAPA” value in test [3] (setting [16]) was determined as 90. The “Control of weed species after post-emergence application, DIGSA” value in test [4] (setting [16]) stood at 80. In addition, the “Control of weed species after post-emergence application, SETFA” value with Setaria faberi (SETFA) (setting [16]) is 100. For the same compound, in [5] (setting [16]), the “Control of weed species after post-emergence application, CHEAL” value was determined as 40. Further, the “Control of weed species after post-emergence application, EPHHL” value in test [6] (setting [16]) came to 50.
As to `N#Cc1ccnc(-c2cc[n+](CCCS(=O)(=O)[O-])nc2)n1` [Compound A147], the pest or weed control at 500 g/ha in the test on Lolium perenne (LOLPE) (setting [7]) was determined as 40%; in [1] (setting [8]), 30%; with Eleusine indica (ELEIN) (setting [9]), 20%; in [2] (setting [10]) it was 60%; in test [3] (setting [11]), 40%; in [4] (setting [12]) it was 20%. For the same compound, the pest or weed control at 500 g/ha in the test on Setaria faberi (SETFA) (setting [13]) was found to be 40%; in test [5] (setting [14]), 50%; in test [6] (setting [15]) it was 70%.
For the compound `O=C(O)CC[n+]1ccc(-c2ccccn2)cn1` [Compound A148], the pest or weed control at 500 g/ha in the test on Lolium perenne (LOLPE) (setting [7]) was 20%; in test [1] (setting [8]) it was 50%; in the test on Eleusine indica (ELEIN) (setting [9]), 40%; in [2] (setting [10]) it was 20%; in [3] (setting [11]), 100%; in test [4] (setting [12]), 50%. Moreover, the values for the pest or weed control at 500 g/ha (in the test with Setaria faberi (SETFA) (setting [13]); in test [5] (setting [14]); in test [6] (setting [15])) were 50%, 40% and 60%, respectively.
Take `O=C(O)CC[n+]1ccc(-c2ncccc2Cl)cn1` [Compound A149]: the pest or weed control at 500 g/ha with Lolium perenne (LOLPE) (setting [7]) was found to be 40%; in test [1] (setting [8]), 50%; with Eleusine indica (ELEIN) (setting [9]), 60%; in test [2] (setting [10]), 10%; in test [3] (setting [11]), 30%; in [4] (setting [12]), 50%. Besides, the pest or weed control at 500 g/ha is 40% in the test with Setaria faberi (SETFA) (setting [13]), 40% in test [5] (setting [14]) and 30% in [6] (setting [15]).
Consider `Cc1cc(F)cnc1-c1cc[n+](CCC(=O)O)nc1` [Compound A151], for which the pest or weed control at 500 g/ha is 10% in the test on Lolium perenne (LOLPE) (setting [7]); 20% in [1] (setting [8]); 20% in the test on Eleusine indica (ELEIN) (setting [9]); 10% in test [2] (setting [10]); 20% in test [3] (setting [11]); 20% in test [4] (setting [12]). The pest or weed control at 500 g/ha worked out at 20% in the test on Setaria faberi (SETFA) (setting [13]), 20% in [5] (setting [14]) and 40% in test [6] (setting [15]).
Take `Cc1cnc(-c2cc[n+](CCS(=O)(=O)[O-])nc2)c(C)c1` [Compound A152]: the pest or weed control at 500 g/ha with Lolium perenne (LOLPE) (setting [7]) worked out at 10%; in [1] (setting [8]), 20%; in the test with Eleusine indica (ELEIN) (setting [9]) it was 20%; in test [2] (setting [10]), 0%; in test [3] (setting [11]) it was 20%; in test [4] (setting [12]), 30%. Also, the values for the pest or weed control at 500 g/ha (in the test on Setaria faberi (SETFA) (setting [13]); in [5] (setting [14]); in test [6] (setting [15])) were 20%, 10% and 20%, respectively.
`Cc1c[n+](CCC(=O)O)ncc1-c1ncccn1` [Compound A153]: the pest or weed control at 500 g/ha is 0% in the test with Lolium perenne (LOLPE) (Application Rate 500 g/Ha, Method A, read-out: Control of weed species after post-emergence application, LOLPE (100=total damage to plant; 0=no damage to plant)); 40% in [1] (Application Rate 500 g/Ha, Method A, read-out: Control of weed species after post-emergence application, ECHCG (100=total damage to plant; 0=no damage to plant)); 20% with Eleusine indica (ELEIN) (Application Rate 500 g/Ha, Method A, read-out: Control of weed species after post-emergence application, ELEIN (100=total damage to plant; 0=no damage to plant)); 20% in test [2] (Application Rate 500 g/Ha, Method A, read-out: Control of weed species after post-emergence application, IPOHE (100=total damage to plant; 0=no damage to plant)); 90% in [3] (Application Rate 500 g/Ha, Method A, read-out: Control of weed species after post-emergence application, AMAPA (100=total damage to plant; 0=no damage to plant)); 20% in test [4] (Application Rate 500 g/Ha, Method A, read-out: Control of weed species after post-emergence application, DIGSA (100=total damage to plant; 0=no damage to plant)). Moreover, the pest or weed control at 500 g/ha was found to be 20% in the test on Setaria faberi (SETFA) (Application Rate 500 g/Ha, Method A, read-out: Control of weed species after post-emergence application, SETFA (100=total damage to plant; 0=no damage to plant)); 60% in test [5] (Application Rate 500 g/Ha, Method A, read-out: Control of weed species after post-emergence application, CHEAL (100=total damage to plant; 0=no damage to plant)); 40% in test [6] (Application Rate 500 g/Ha, Method A, read-out: Control of weed species after post-emergence application, EPHHL (100=total damage to plant; 0=no damage to plant)).

The values are drawn from US20220125051A1, “PRE-HARVEST DESICCATION METHOD” (SYNGENTA CROP PROTECTION AG, priority 2019, published 2022).
